# Experimental data taken from patent US6239130A, “Phosphodiesterase 4-inhibiting diazepinoindolones” (Warner-Lambert Company, priority 1997, dated 2001).
# Where a name gives a salt, the structure may show the parent alone. Read-outs that look alike come from different tables or passages of the source.
# System: PDE4 enzyme of human origin
# Test: PDE4-inhibiting activity on an enzyme preparation obtained from the U937 cell line
# Type: biochemical
# Method: In the case of the PDE4 enzymes, this value is compared with that of rolipram, a specific PDE4 inhibitor. […] Measurement of the enzyme activity of the different types of PDE, and especially of the PDE4 enzymes, is then carried out according to a method adapted from W. J. Thompson, ibidem.
Compound,IC50 [nM],IC50 (listed as 7B) [nM]
"Cc1cc2c3c(c1)C(c1ccccc1)=NC(n1c(C)nc4cc(C(=O)O)ccc4c1=O)C(=O)N3CC2 (racemic) [Example 7, 2-methyl-3-(9-methyl-4-oxo-1-phenyl-3,4,6,7-tetrahydro-[1,4]diazepino[6,7,1-hi]indol-3-yl)-4-oxo-3,4-dihydroquinazoline-7-carboxylic acid]",52,57
"Cc1cc2c3c(c1)C(c1ccccc1)=N[C@H](n1c(C)nc4cc(C(=O)O)ccc4c1=O)C(=O)N3CC2 [7D(R), (3R)-2-methyl-3-(9-methyl-4-oxo-1-phenyl-3,4,6,7-tetrahydro[1,4]diazepino[6,7,1-hi]indol-3-yl)-4-oxo-3,4-dihydroquinazoline-7-carboxylic acid]",982,
"Cc1cc2c3c(c1)C(c1ccccc1)=N[C@@H](n1c(C)nc4cc(C(=O)O)ccc4c1=O)C(=O)N3CC2 [7E(S), (3S)-2-methyl-3-(9-methyl-4-oxo-1-phenyl-3,4,6,7-tetrahydro[1,4]diazepino[6,7,1-hi]indol-3-yl)-4-oxo-3,4-dihydroquinazoline-7-carboxylic acid]",35,
"Cc1nc2ccccc2c(=O)n1[C@@H]1N=C(c2ccccc2)c2cccc3c2N(CC3)C1=O [Example 1, (3S)-3-(2-methyl-4-oxo-4H-quinazolin-3-yl)-1-phenyl-6,7-dihydro-3H[1,4]diazepino[6,7,1-hi]indol-4-one]",448,
"Cc1cc2c3c(c1)C(c1ccccc1)=NC(n1c(C)nc4ccccc4c1=O)C(=O)N3CC2 (stereo not shown) [Example 2, 9-methyl-3-(2-methyl-4-oxo-4H-quinazolin-3-yl)-1-phenyl-6,7-dihydro-3H-[1,4]diazepino [6,7,1-hi] indol-4-one]",146,
"COc1cc2c3c(c1)C(c1ccccc1)=NC(n1c(C)nc4ccccc4c1=O)C(=O)N3CC2 (stereo not shown) [Example 2A, 9-methoxy-3-(2-methyl-4-oxo-4H-quinazolin-3-yl)-1-phenyl-6,7-dihydro-3H-[1,4]diazepino [6,7,1-hi] indol-4-one]",183,
"COC(=O)c1ccc2c(=O)n(C3N=C(c4ccccc4)c4cc(OC)cc5c4N(CC5)C3=O)c(C)nc2c1 (stereo not shown) [Example 2B, Methyl 2-methyl-3-(9-methoxy-4-oxo-1-phenyl-3,4,6,7-tetrahydro[1,4]diazepino[6,7,1-hi]indol-3-yl)-4-oxo-3,4-dihydroquinazoline-7-carboxylate]",67,
"COc1cc2c3c(c1)C(c1ccccc1)=NC(n1c(C)nc4cc(C(=O)O)ccc4c1=O)C(=O)N3CC2 (stereo not shown) [Example 2C, 2-methyl-3-(9-methoxy-4-oxo-1-phenyl-3,4,6,7-tetrahydro[1,4]diazepino[6,7,1-hi]indol-3-yl)-4-oxo-3,4-dihydroquinazoline-7-carboxylic acid]",108,
"Cc1cc2c3c(c1)C(c1ccccc1)=N[C@@H](n1c(C)nc4cccc(C)c4c1=O)C(=O)N3CC2 [Example 3, (3S)-9-methyl-3-(2,5-dimethyl-4-oxo-4H-quinazolin-3-yl)-1-ph enyl-6,7-dihydro-3H-[1,4]-diazepino[6,7,1-hi]indol-4-one]",141,
"Cc1cc2c3c(c1)C(c1ccccc1)=N[C@@H](n1c(C)nc4ccc(C)cc4c1=O)C(=O)N3CC2 [Example 4, (3S)-9-methyl-3-(2,6-dimethyl-4-oxo-4H-quinazolin-3-yl)-1-phenyl-6,7-dihydro-3H-[1,4]diazepino[6,7,1-hi]indol-4-one]",553,
"Cc1cc2c3c(c1)C(c1ccccc1)=N[C@@H](n1c(C)nc4c(C)cccc4c1=O)C(=O)N3CC2 [Example 5, (3S)-9-methyl-3-(2,8-dimethyl-4-oxo-4H-quinazolin-3-yl)-1-ph enyl-6,7-dihydro-3H-[1,4]diazepino[6,7,1-hi]indol-4-one]",832,
"COc1cccc2nc(C)n(C3N=C(c4ccccc4)c4cc(C)cc5c4N(CC5)C3=O)c(=O)c12 (stereo not shown) [Example 6, 3-(5-methoxy-2-methyl-4-oxo-4H-quinazolin-3-yl)-9-methyl-1-phenyl-6,7-dihydro-3H-[1,4]diazepino[6,7,1-hi]indol-4-one]",3020,
"COc1ccc2c(=O)n(C3N=C(c4ccccc4)c4cc(C)cc5c4N(CC5)C3=O)c(C)nc2c1 (stereo not shown) [Example 6A, 3-(7-methoxy-2-methyl-4-oxo-4H-quinazolin-3-yl)-9-methyl-1-phenyl-6,7-dihydro-3H-[1,4]-diazepino[6,7,1-hi]indol-4-one]",133,
"COc1ccc2nc(C)n(C3N=C(c4ccccc4)c4cc(C)cc5c4N(CC5)C3=O)c(=O)c2c1 (stereo not shown) [Example 6B, 3-(6-methoxy-2-methyl-4-oxo-4H-quinazolin-3-yl)-9-methyl-1-phenyl-6,7-dihydro-3H-[1,4]-diazepino[6,7,1-hi]indol-4-one]",1420,
"Cc1cc2c3c(c1)C(c1ccccc1)=NC(n1c(C)nc4ccc(Br)cc4c1=O)C(=O)N3CC2 (stereo not shown) [Example 6C, 3-(6-bromo-2-methyl-4-oxo-4H-quinazolin-3-yl)-9-methyl-1-phenyl-6,7-dihydro-3H-[1,4]diazepino-[6,7,1-hi]indol-4-one]",838,
"Cc1cc2c3c(c1)C(c1ccccc1)=NC(n1c(C)nc4cccc(CO)c4c1=O)C(=O)N3CC2 (stereo not shown) [Example 6D, 3-(5-hydroxymethyl-2-methyl-4-oxo-4H-quinazolin-3-yl)-9-methyl-1-phenyl-6,7-dibydro-3H-[1,4]-diazepino[6,7,1-hi]indol-4-one]",372,
"Cc1cc2c3c(c1)C(c1ccccc1)=NC(n1c(C)nc4cccc(C(=O)OC(C)(C)C)c4c1=O)C(=O)N3CC2 (stereo not shown) [Example 6E, tert-Butyl 2-methyl-3-(9-methyl-4-oxo-1-phenyl-3,4,6,7-tetrahydro-[1,4]diazepino[6,7,1-hi]indol-3-yl)-4-oxo-3,4-dihydroquinazoline-5-carboxylate]",> 100000,
"Cc1cc2c3c(c1)C(c1ccccc1)=NC(n1c(C)nc4cccc(C(=O)O)c4c1=O)C(=O)N3CC2 (stereo not shown) [Example 6F, 2-methyl-3-(9-methyl-4-oxo-1-phenyl-3,4,6,7-tetrahydro[1,4]diazepino[6,7,1-hi]indol-3-yl)-4-oxo-3,4-dihydroquinazoline-5-carboxylic acid]",> 100000,
"COC(=O)c1ccc2c(=O)n(C3N=C(c4ccccc4)c4cc(C)cc5c4N(CC5)C3=O)c(C)nc2c1 (stereo not shown) [Example 7A, Methyl 2-methyl-3-(9-methyl-4-oxo-1-phenyl-3,4,6,7-tetrahydro-[1,4]diazepino[6,7,1-hi]indol-3-yl)-4-oxo-3,4-dihydroquinazoline-7-carboxylate]",157,
"Cc1cc2c3c(c1)C(c1ccccc1)=NC(n1c(C)nc4cc(C(=O)O)ccc4c1=O)C(=O)N3CC2 [Example 7C, Salt of 2-methyl-3-(9-methyl-4-oxo-1-phenyl-3,4,6,7-tetrahydro[1,4]diazepino[6,7,1-hi]indol-3-yl)-4-oxo-3,4-dihydroquin azoline-7-carboxylic acid with D-glucamine]",66,
"Cc1cc2c3c(c1)C(c1ccccc1)=NC(n1c(C)nc4cc(C(N)=O)ccc4c1=O)C(=O)N3CC2 (stereo not shown) [Example 8, 2-methyl-3-(9-methyl-4-oxo-1-phenyl-3,4,6,7-tetrahydro-[1,4]diazepino[6,7,1-hi]indol-3-yl)-4-oxo-3,4-dihydroquinazoline-7-carboxamide]",50,
Cc1cc2c3c(c1)C(c1ccccc1)=NC(n1c(C)nc4cc(-c5nnn[nH]5)ccc4c1=O)C(=O)N3CC2 (stereo not shown) [Example 8B],28,
"CNC(=O)c1ccc2c(=O)n(C3N=C(c4ccccc4)c4cc(C)cc5c4N(CC5)C3=O)c(C)nc2c1 (stereo not shown) [Example 9, 2-methyl-3-(9-methyl-4-oxo-1-phenyl-3,4,6,7-tetrahydro-[1,4]diazepino[6,7,1-hi]indol-3-yl)-4-oxo-3,4-dihydroquinazoline-7-(N-methylcarboxamide)]",63,
"Cc1cc2c3c(c1)C(c1ccccc1)=NC(n1c(C)nc4cc(C(=O)N(C)C)ccc4c1=O)C(=O)N3CC2 (stereo not shown) [Example 9A, 2-methyl-3-(9-methyl-4-oxo-1-phenyl-3,4,6,7-tetrahydro[1,4]diazepino[6,7,1-hi]indol-3-yl)-4-oxo-3,4dihydroquinazoline-7-N-dimethylearboxamide]",122,
"Cc1cc2c3c(c1)C(c1ccccc1)=NC(n1c(C)nc4cc(C(=O)NCCN5CCOCC5)ccc4c1=O)C(=O)N3CC2 (stereo not shown) [Example 9B, 2-methyl-3-(9-methyl-4-oxo-1-phenyl-3,4,6,7-tetrahydro[1,4]diazepino[6,7,1-hi]indol-3-yl) 4-oxo-3,4-dihydroquinazoline-7-carboxylic acid (2-morpholin-4-yl-ethyl)amide]",95,
Cc1cc2c3c(c1)C(c1ccccc1)=NC(n1c(C)nc4cc(C(=O)NCCCN5CCOCC5)ccc4c1=O)C(=O)N3CC2 (stereo not shown) [Example 9C],69,
"Cc1cc2c3c(c1)C(c1ccccc1)=NC(n1c(C)nc4cc(C(=O)NCCN)ccc4c1=O)C(=O)N3CC2 (stereo not shown) [Example 9D, 2-methyl-3-(9-methyl-4-oxo-1-phenyl-3,4,6,7-tetrahydro[1,4]diazepino[6,7,1-hi]indol-3-yl)-4-oxo-3,4-dihydroquinazoline-7-(2-amino)ethylcarboxamide]",119,
"Cc1cc2c3c(c1)C(c1ccccc1)=NC(n1c(C)nc4cc(C(=O)N5CCN(CCO)CC5)ccc4c1=O)C(=O)N3CC2 (stereo not shown) [Example 9F, 3-{7-[4-(2-hydroxyethyl)piperazine-1-carbonyl]-2-methyl-4-oxo-4H-quinazolin-3-yl}-9-methyl-1-phenyl-6,7-dihydro-3H-[1,4]diazepino[6,7,1-hi]indol-4-one]",192,
Cc1cc2c3c(c1)C(c1ccccc1)=NC(n1c(C)nc4cc(C(=O)N5CCN(CCO)CC5)ccc4c1=O)C(=O)N3CC2 (stereo not shown) [Example 9G],137,
"COC(=O)[C@H](CCCCN)NC(=O)c1ccc2c(=O)n(C3N=C(c4ccccc4)c4cc(C)cc5c4N(CC5)C3=O)c(C)nc2c1 (stereo partly drawn) [Example 9I, Methyl (2S)-6-amino-2-{[2-methyl-3-(9-methyl-4-oxo-1-phenyl-3,4,6,7-tetrahydro-[1,4]diazepino[6,7,1-hi]indol-3-yl)-4-oxo-3,4-dihydroquinazolin-7-carbonyl]amino}hexanoate]",119,
